Laboratory results published in patent US8524705B2, “2-oxo-2-(2-phenyl-5,6,7,8-tetrahydro-indolizin-3-yl)-acetamide derivatives and related compounds as antifungal agents” (F2G Limited British Body Corporate, priority 2007, dated 2013).
Values after ≈ are worked out from the molar mass of the structure shown. Values belong to the molecule of their own block, whether it stands above or below them.

Assays:
Format in all cases: cell-based
Details in all cases: banded into grades
Aspergillus flavus = assay: Measurement of Minimum Inhibitory Concentrations (MICs), A. flavus
Experimental: (§1) Between 1 and 5 mgs of compound were accurately weighed out into a sterile Eppendorf tube. The compound was dissolved in DMSO to give a solution containing 5 mg/mL. Tubes were stored at −20° C. until required. On the day of testing thawed solutions were vortex mixed to ensure homogeneity. 30 μL of solution was removed and added to 570 μL of sterile water in a separate sterile Eppendorf. The thoroughly mixed solution was used to prepare a series of doubling dilutions in water, in a deep well plate. […] replicate plates were prepared using a Minitrak by aspirating […] from each well into eleven clear polystyrene 96 well plates. Spores of Aspergillus spp. (Aspergillus fumigatus [two strains], Aspergillus terreus [two strains], Aspergillus niger and Aspergillus flavus) were harvested from cultures grown on Sabarauds agar for 5 days, and resuspended in PBS/Tween 80 to approx 1×10^7 cfu/mL. Each organism suspension was diluted in YAG medium (1% glucose, 1% ammonium chloride and 0.5% yeast extract) to 0.5-2×10^4 cfu/mL. 80 μL of an organism suspension was added to each well of the plate containing drug dilutions. This produced MIC plates with a drug range 50-0.05 mg/L and organism inocula of 1−2×10^4 cfu/mL for Aspergillus spp. All plates were incubated for 24 hrs at 35° C. Growth was assessed by monitoring the optical density at 485 nm for each well. The MIC of a compound is the lowest drug concentration that inhibits growth of an organism by >70% compared with a drug free control. MICs are recorded as mg/L. In cases where the MIC of an organism is >=0.05 mg/L the MIC is repeated using a concentration range of 0.5-0.0005 mg/L. Other growth media can be used for susceptibility testing, and the activity of the described compounds was also assessed in RPMI medium containing 2% glucose, and 0.135M MOPS buffer. MIC tests in YAG medium have more clear-cut endpoints and have slightly lower MICs than those performed in RPMI medium. The following organisms were tested: Aspergillus flavus, Aspergillus fumigatus AF293 and AF210, Aspergillus niger and Aspergillus terreus AT4 and AT49.

[1] = tested on: Aspergillus fumigatus AF210; assay: Measurement of Minimum Inhibitory Concentrations (MICs), A. fumigatus 210
Experimental: as §1

[2] = tested on: Aspergillus fumigatus AF293; assay: Measurement of Minimum Inhibitory Concentrations (MICs), A. fumigatus
Experimental: as §1

Aspergillus niger = assay: Measurement of Minimum Inhibitory Concentrations (MICs), A. niger
Experimental: as §1

Aspergillus terreus AT49 = assay: Measurement of Minimum Inhibitory Concentrations (MICs), A. terreus 49
Experimental: as §1

Aspergillus terreus AT4 = assay: Measurement of Minimum Inhibitory Concentrations (MICs), A. terreus
Experimental: as §1

[3] = RPMI medium containing 2% glucose, 0.135M MOPS buffer
[4] = YAG medium, 24 hrs at 35° C., >70% growth inhibition

SMILES: Cc1cc(C)nc(N(C)CCCN(C)c2ccc(NC(=O)C(=O)c3c(-c4ccccc4)cc4n3CCCC4)cc2)c1 [Example 19, N-[4-({3-[(4,6-Dimethyl-pyridin-2-yl)-methyl-amino]-propyl}-methyl-amino)-phenyl]-2-oxo-2-(2-phenyl-5,6,7,8-tetrahydro-indolizin-3-yl)-acetamide]
MIC (Aspergillus flavus; [3]): < 1 µg/mL
MIC (Aspergillus flavus; [4]): < 1 µg/mL
MIC [1, 3]: < 1 µg/mL
MIC [1, 4]: < 1 µg/mL
MIC [2, 3]: < 1 µg/mL
MIC [2, 4]: < 1 µg/mL
MIC (Aspergillus niger; [3]): < 1 µg/mL
MIC (Aspergillus niger; [4]): < 1 µg/mL
MIC (Aspergillus terreus AT49; [3]): < 1 µg/mL
MIC (Aspergillus terreus AT49; [4]): < 1 µg/mL
MIC (Aspergillus terreus AT4; [3]): < 1 µg/mL
MIC (Aspergillus terreus AT4; [4]): < 1 µg/mL

SMILES: Cc1cc(C)nc(N2CCC(O)(c3ccc(NC(=O)C(=O)c4c(-c5ccccc5)cc5n4CCCC5)cc3)CC2)c1 [Example 21, N-[4-(4-Hydroxy-4′,6′-dimethyl-3,4,5,6-tetrahydro-2H-[1,2′]bipyridinyl-4-yl)-phenyl]-2-oxo-2-(2-phenyl-5,6,7,8-tetrahydro-indolizin-3-yl)-acetamide]
MIC (Aspergillus flavus; [3]): < 1 µg/mL
MIC (Aspergillus flavus; [4]): < 1 µg/mL
MIC [1, 3]: < 1 µg/mL
MIC [1, 4]: < 1 µg/mL
MIC [2, 3]: < 1 µg/mL
MIC [2, 4]: < 1 µg/mL
MIC (Aspergillus niger; [3]): < 1 µg/mL
MIC (Aspergillus niger; [4]): < 1 µg/mL
MIC (Aspergillus terreus AT49; [3]): < 1 µg/mL
MIC (Aspergillus terreus AT49; [4]): < 1 µg/mL
MIC (Aspergillus terreus AT4; [3]): < 1 µg/mL
MIC (Aspergillus terreus AT4; [4]): < 1 µg/mL

SMILES: COCc1cc(NC(=O)C(=O)c2c(-c3ccccc3)cc3n2CCCC3)ccc1N1CCN(c2cc(C)cc(C)n2)CC1 [Example 23, N-{4-[4-(4,6-Dimethyl-pyridin-2-yl)-piperazin-1-yl]-3-methoxymethyl-phenyl}-2-oxo-2-(2-phenyl-5,6,7,8-tetrahydro-indolizin-3-yl)-acetamide]
MIC (Aspergillus flavus; [3]): < 1 µg/mL
MIC (Aspergillus flavus; [4]): < 1 µg/mL
MIC [1, 3]: < 1 µg/mL
MIC [1, 4]: < 1 µg/mL
MIC [2, 3]: < 1 µg/mL
MIC [2, 4]: < 1 µg/mL
MIC (Aspergillus niger; [3]): < 1 µg/mL
MIC (Aspergillus niger; [4]): < 1 µg/mL
MIC (Aspergillus terreus AT49; [3]): < 1 µg/mL
MIC (Aspergillus terreus AT49; [4]): < 1 µg/mL
MIC (Aspergillus terreus AT4; [3]): < 1 µg/mL
MIC (Aspergillus terreus AT4; [4]): < 1 µg/mL

SMILES: COCc1cc(N2CCN(c3cc(C)cc(C)n3)CC2)ccc1NC(=O)C(=O)c1c(-c2ccccc2)cc2n1CCCC2 [Example 24, N-{4-[4-(4,6-Dimethyl-pyridin-2-yl)-piperazin-1-yl]-2-methoxymethyl-phenyl}-2-oxo-2-(2-phenyl-5,6,7,8-tetrahydro-indolizin-3-yl)-acetamide]
MIC (Aspergillus flavus; [3]): 1 to 10 µg/mL (≈ 1.73 to 17.3 µM)
MIC (Aspergillus flavus; [4]): < 1 µg/mL
MIC [1, 3]: 1 to 10 µg/mL (≈ 1.73 to 17.3 µM)
MIC [1, 4]: < 1 µg/mL
MIC [2, 3]: 1 to 10 µg/mL (≈ 1.73 to 17.3 µM)
MIC [2, 4]: < 1 µg/mL
MIC (Aspergillus niger; [3]): 1 to 10 µg/mL (≈ 1.73 to 17.3 µM)
MIC (Aspergillus niger; [4]): < 1 µg/mL
MIC (Aspergillus terreus AT49; [3]): < 1 µg/mL
MIC (Aspergillus terreus AT49; [4]): < 1 µg/mL
MIC (Aspergillus terreus AT4; [3]): < 1 µg/mL
MIC (Aspergillus terreus AT4; [4]): < 1 µg/mL

SMILES: Cc1cc(C)nc(N2CCN(c3ccc(NC(=O)C(=O)c4c(-c5ccccc5)cc5n4CCCC5)cc3COCCCN3CCN(C)CC3)CC2)c1 [Example 25, N-{4-[4-(4,6-Dimethyl-pyridin-2-yl)-piperazin-1-yl]-3-[3-(4-methyl-piperazin-1-yl)-propoxymethyl]-phenyl}-2-oxo-2-(2-phenyl-5,6,7,8-tetrahydro-indolizin-3-yl)-acetamide]
MIC (Aspergillus flavus; [3]): > 10 µg/mL
MIC (Aspergillus flavus; [4]): > 10 µg/mL
MIC [1, 3]: > 10 µg/mL
MIC [1, 4]: > 10 µg/mL
MIC [2, 3]: > 10 µg/mL
MIC [2, 4]: > 10 µg/mL
MIC (Aspergillus niger; [3]): > 10 µg/mL
MIC (Aspergillus niger; [4]): > 10 µg/mL
MIC (Aspergillus terreus AT49; [3]): > 10 µg/mL
MIC (Aspergillus terreus AT49; [4]): > 10 µg/mL
MIC (Aspergillus terreus AT4; [3]): > 10 µg/mL
MIC (Aspergillus terreus AT4; [4]): > 10 µg/mL

Now from value to molecule:

MIC (Aspergillus flavus; [3]): < 1 µg/mL
MIC (Aspergillus flavus; [4]): < 1 µg/mL
MIC [1, 3]: < 1 µg/mL
MIC [1, 4]: < 1 µg/mL
MIC [2, 3]: < 1 µg/mL
MIC [2, 4]: < 1 µg/mL
MIC (Aspergillus niger; [3]): < 1 µg/mL
MIC (Aspergillus niger; [4]): < 1 µg/mL
MIC (Aspergillus terreus AT49; [3]): < 1 µg/mL
MIC (Aspergillus terreus AT49; [4]): < 1 µg/mL
MIC (Aspergillus terreus AT4; [3]): < 1 µg/mL
MIC (Aspergillus terreus AT4; [4]): < 1 µg/mL
SMILES: CCc1cccc(N2CCN(c3ccc(NC(=O)C(=O)c4c(-c5ccccc5)cc5n4CCCC5)cc3)CC2)n1 [Example 15, N-{4-[4-(6-Ethyl-pyridin-2-yl)-piperazin-1-yl]-phenyl}-2-oxo-2-(2-phenyl-5,6,7,8-tetrahydro-indolizin-3-yl)-acetamide]

MIC (Aspergillus flavus; [3]): < 1 µg/mL
MIC (Aspergillus flavus; [4]): < 1 µg/mL
MIC [1, 3]: < 1 µg/mL
MIC [1, 4]: < 1 µg/mL
MIC [2, 3]: < 1 µg/mL
MIC [2, 4]: < 1 µg/mL
MIC (Aspergillus niger; [3]): < 1 µg/mL
MIC (Aspergillus niger; [4]): < 1 µg/mL
MIC (Aspergillus terreus AT49; [3]): < 1 µg/mL
MIC (Aspergillus terreus AT49; [4]): < 1 µg/mL
MIC (Aspergillus terreus AT4; [3]): < 1 µg/mL
MIC (Aspergillus terreus AT4; [4]): < 1 µg/mL
SMILES: Cc1ccc(N2CCN(c3ccc(NC(=O)C(=O)c4c(-c5ccccc5)cc5n4CCCC5)cc3)CC2)nc1 [Example 16, N-{4-[4-(5-Methyl-pyridin-2-yl)-piperazin-1-yl]-phenyl}-2-oxo-2-(2-phenyl-5,6,7,8-tetrahydro-indolizin-3-yl)-acetamide]

MIC (Aspergillus flavus; [3]): < 1 µg/mL
MIC (Aspergillus flavus; [4]): < 1 µg/mL
MIC [1, 3]: < 1 µg/mL
MIC [1, 4]: < 1 µg/mL
MIC [2, 3]: < 1 µg/mL
MIC [2, 4]: < 1 µg/mL
MIC (Aspergillus niger; [3]): < 1 µg/mL
MIC (Aspergillus niger; [4]): < 1 µg/mL
MIC (Aspergillus terreus AT49; [3]): < 1 µg/mL
MIC (Aspergillus terreus AT49; [4]): < 1 µg/mL
MIC (Aspergillus terreus AT4; [3]): < 1 µg/mL
MIC (Aspergillus terreus AT4; [4]): < 1 µg/mL
SMILES: CCc1ccnc(N2CCN(c3ccc(NC(=O)C(=O)c4c(-c5ccccc5)cc5n4CCCC5)cc3)CC2)c1 [Example 17, N-{4-[4-(4-Ethyl-pyridin-2-yl)-piperazin-1-yl]-phenyl}-2-oxo-2-(2-phenyl-5,6,7,8-tetrahydro-indolizin-3-yl)-acetamide]

MIC (Aspergillus flavus; [3]): < 1 µg/mL
MIC (Aspergillus flavus; [4]): < 1 µg/mL
MIC [1, 3]: < 1 µg/mL
MIC [1, 4]: < 1 µg/mL
MIC [2, 3]: < 1 µg/mL
MIC [2, 4]: < 1 µg/mL
MIC (Aspergillus niger; [3]): < 1 µg/mL
MIC (Aspergillus niger; [4]): < 1 µg/mL
MIC (Aspergillus terreus AT49; [3]): < 1 µg/mL
MIC (Aspergillus terreus AT49; [4]): < 1 µg/mL
MIC (Aspergillus terreus AT4; [3]): < 1 µg/mL
MIC (Aspergillus terreus AT4; [4]): < 1 µg/mL
SMILES: O=C(Nc1ccc(N2CCN(c3ccc(CN4CCOCC4)cn3)CC2)cc1)C(=O)c1c(-c2ccccc2)cc2n1CCCC2 [Example 18, N-{4-[4-(5-Morpholin-4-ylmethyl-pyridin-2-yl)-piperazin-1-yl]-phenyl}-2-oxo-2-(2-phenyl-5,6,7,8-tetrahydro-indolizin-3-yl)-acetamide]

MIC (Aspergillus flavus; [3]): < 1 µg/mL
MIC (Aspergillus flavus; [4]): < 1 µg/mL
MIC [1, 3]: < 1 µg/mL
MIC [1, 4]: < 1 µg/mL
MIC [2, 3]: < 1 µg/mL
MIC [2, 4]: < 1 µg/mL
MIC (Aspergillus niger; [3]): < 1 µg/mL
MIC (Aspergillus niger; [4]): < 1 µg/mL
MIC (Aspergillus terreus AT49; [3]): < 1 µg/mL
MIC (Aspergillus terreus AT49; [4]): < 1 µg/mL
MIC (Aspergillus terreus AT4; [3]): < 1 µg/mL
MIC (Aspergillus terreus AT4; [4]): < 1 µg/mL
SMILES: Cc1cc(C)nc(N2CCN(c3ccc(NC(=O)C(=O)c4c(-c5ccccc5)cc5n4CCCC5)c(C)c3)CC2)c1 [Example 20, N-{4-[4-(4,6-Dimethyl-pyridin-2-yl)-piperazin-1-yl]-2-methyl-phenyl}-2-oxo-2-(2-phenyl-5,6,7,8-tetrahydro-indolizin-3-yl)-acetamide]

MIC (Aspergillus flavus; [3]): < 1 µg/mL
MIC (Aspergillus flavus; [4]): < 1 µg/mL
MIC [1, 3]: < 1 µg/mL
MIC [1, 4]: < 1 µg/mL
MIC [2, 3]: < 1 µg/mL
MIC [2, 4]: < 1 µg/mL
MIC (Aspergillus niger; [3]): < 1 µg/mL
MIC (Aspergillus niger; [4]): < 1 µg/mL
MIC (Aspergillus terreus AT49; [3]): < 1 µg/mL
MIC (Aspergillus terreus AT49; [4]): < 1 µg/mL
MIC (Aspergillus terreus AT4; [3]): < 1 µg/mL
MIC (Aspergillus terreus AT4; [4]): < 1 µg/mL
SMILES: Cc1cc(C)nc(N2CCN(c3ccc(NC(=O)C(=O)c4c(-c5ccccc5)cc5n4CCCC5)cc3C)CC2)c1 [Example 22, N-{4-[4-(4,6-Dimethyl-pyridin-2-yl)-piperazin-1-yl]-3-methyl-phenyl}-2-oxo-2-(2-phenyl-5,6,7,8-tetrahydro-indolizin-3-yl)-acetamide]
